Laboratory results published in ChEMBL document CHEMBL1201862, “PubChem BioAssay data set” (2004).
Activity calls are given as the source filed them.

Key:
[1] = decrease of insulin promoter-GFP reporter – imaging, high-content screening, mouse beta cells (AID 1628); assay type: functional; settings: MIN6
[2] = MIN6 cell viability loss – mouse insulinoma, cytotoxicity control, dose response (AID 2122); assay type: functional;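 note: confirmatory high-throughput counterscreen run to flag cytotoxic compounds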
[3] = HPDE-C7 pancreatic duct cell viability loss – fluorescence, HTS (AID 430); assay type: functional, cell-based; settings: Homo sapiens
[4] = viability loss of HPDE-C7K cells – cell-based, fluorescence, HTS, primary screen (AID 431); assay type: functional; settings: Homo sapiens
[5] = viability of PTEN-deleted HCT116 cells – cell-based, HCT116 PTEN knockout, dose response (AID 1047); assay type: functional;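 note: HCT116 colon tumor cells with PTEN knocked out; cells exposed to compound for 60 hours before readout; potency for loss of cell viability measured by luminescence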
[6] = viability of HCT116 lacking mutant beta-catenin – cell-based, human colon tumor, dose response (AID 1045); assay type: functional;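 note: HCT116 colon tumor cells with beta catenin knocked out; cells exposed to compound for 60 hours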
Nonstructural protein 1 = Nonstructural protein 1 (Influenza A virus, UniProt Q194T2); assay type: functional, Influenza A virus (A/California/07/2009(H1N1))
Nonstructural protein 1, sequence (Q194T2 whole entry): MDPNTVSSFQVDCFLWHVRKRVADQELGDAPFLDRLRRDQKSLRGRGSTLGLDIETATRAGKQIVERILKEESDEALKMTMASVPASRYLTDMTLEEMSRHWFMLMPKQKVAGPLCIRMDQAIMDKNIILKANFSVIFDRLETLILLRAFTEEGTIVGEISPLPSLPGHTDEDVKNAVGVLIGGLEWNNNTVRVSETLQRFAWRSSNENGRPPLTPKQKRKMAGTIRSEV

INS1 = assay: INS-1E survival protection against cytokine death – cell-based, luminescence, retest, dose response (AID 449756); assay type: functional; settings: Rattus norvegicus;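 note: cell death triggered by IL-1 beta plus TNF-alpha plus IFN-gamma mixture; protective hits raise ATP signal compared with cytokine alone wells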
[7] = target: NAD-dependent protein deacylase sirtuin-5, mitochondrial (Homo sapiens, UniProt Q9NXA8); assay: sirtuin-5 deacylation blockers, concentration series – biochemical, fluorescence imaging, cherry-pick, set 5, dose response (AID 720591);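 note: desuccinylation of succinyl peptide AMC substrate read as fluorescence after trypsin release; potency of inhibitors that lower fluorescence and may act on trypsin instead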
NAD-dependent protein deacylase sirtuin-5, mitochondrial, sequence (Q9NXA8 whole entry): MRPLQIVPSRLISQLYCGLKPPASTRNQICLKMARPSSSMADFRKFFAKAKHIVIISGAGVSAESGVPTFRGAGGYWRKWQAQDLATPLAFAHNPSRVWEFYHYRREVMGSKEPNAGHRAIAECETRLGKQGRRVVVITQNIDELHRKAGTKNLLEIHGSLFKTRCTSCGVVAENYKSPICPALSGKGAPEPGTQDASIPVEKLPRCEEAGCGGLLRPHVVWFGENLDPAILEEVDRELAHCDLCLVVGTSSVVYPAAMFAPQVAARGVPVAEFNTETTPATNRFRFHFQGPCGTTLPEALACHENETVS

[8] = target: Heat shock protein HSP 90-alpha (Homo sapiens, UniProt P07900); assay: Luminescence-based dose response biochemical high throughput screening assay for inhibitors of the Heat Shock Protein 90 (HSP90). [Related pubchem assays: 1831 (Summary AID.), 1846 (Confirmation screen.), 1789 (Primary screen.)]
[9] = target: Voltage-gated inwardly rectifying potassium channel KCNH2 (Homo sapiens, UniProt Q12809); assay: concentration-dependent hERG rescue from blockers – cell-based, thallium flux, dose response (AID 2121); assay type: ADME
Voltage-gated inwardly rectifying potassium channel KCNH2, sequence (Q12809 whole entry): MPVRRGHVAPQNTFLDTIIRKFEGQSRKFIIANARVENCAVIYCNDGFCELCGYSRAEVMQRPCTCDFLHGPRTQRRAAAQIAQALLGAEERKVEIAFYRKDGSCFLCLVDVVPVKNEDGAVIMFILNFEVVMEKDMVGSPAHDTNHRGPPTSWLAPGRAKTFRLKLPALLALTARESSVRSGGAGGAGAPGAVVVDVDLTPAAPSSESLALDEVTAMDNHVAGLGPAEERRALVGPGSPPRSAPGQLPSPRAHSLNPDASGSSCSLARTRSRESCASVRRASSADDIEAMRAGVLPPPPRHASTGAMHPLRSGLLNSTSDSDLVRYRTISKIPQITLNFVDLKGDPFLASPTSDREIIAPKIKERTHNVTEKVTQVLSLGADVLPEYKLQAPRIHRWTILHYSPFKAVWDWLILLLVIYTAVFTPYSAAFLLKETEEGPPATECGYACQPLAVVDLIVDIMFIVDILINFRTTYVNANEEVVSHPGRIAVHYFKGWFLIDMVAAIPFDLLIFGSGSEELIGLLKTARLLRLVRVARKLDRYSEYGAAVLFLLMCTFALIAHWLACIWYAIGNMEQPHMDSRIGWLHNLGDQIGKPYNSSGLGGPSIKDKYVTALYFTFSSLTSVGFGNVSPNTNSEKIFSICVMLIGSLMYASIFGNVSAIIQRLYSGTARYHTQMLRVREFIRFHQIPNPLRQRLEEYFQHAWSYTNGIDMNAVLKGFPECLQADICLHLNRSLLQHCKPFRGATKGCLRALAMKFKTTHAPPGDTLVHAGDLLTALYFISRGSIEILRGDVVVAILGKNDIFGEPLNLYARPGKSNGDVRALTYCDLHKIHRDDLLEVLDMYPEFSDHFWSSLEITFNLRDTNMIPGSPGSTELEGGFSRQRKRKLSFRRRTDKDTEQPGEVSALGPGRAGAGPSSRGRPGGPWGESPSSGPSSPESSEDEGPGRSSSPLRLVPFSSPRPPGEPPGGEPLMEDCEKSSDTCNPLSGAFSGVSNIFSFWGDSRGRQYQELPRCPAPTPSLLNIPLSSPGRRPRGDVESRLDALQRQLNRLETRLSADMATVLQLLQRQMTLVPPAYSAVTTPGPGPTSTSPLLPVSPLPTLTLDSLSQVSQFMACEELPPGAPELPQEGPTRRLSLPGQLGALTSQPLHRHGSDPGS

Bcl-2-like protein 10 = target: T1, Bcl-2-like protein 10 (Homo sapiens, UniProt Q9HD36); assay: Bcl-B/TR3 peptide binding disruption – biochemical, fluorescence polarization, FITC-TR3 peptide, selectivity assay for Bfl-1 inhibitor project, primary screen (AID 748);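 note: fluorescence polarization from a fluorescein-labelled TR3 peptide binding purified Bcl-B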
T1 sequence (Q9HD36 whole entry): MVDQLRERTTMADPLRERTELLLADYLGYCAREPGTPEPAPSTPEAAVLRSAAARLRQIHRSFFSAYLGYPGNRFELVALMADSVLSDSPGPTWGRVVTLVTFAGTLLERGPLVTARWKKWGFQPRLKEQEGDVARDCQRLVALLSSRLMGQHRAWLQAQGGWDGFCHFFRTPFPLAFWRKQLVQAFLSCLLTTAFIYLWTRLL

Estrogen receptor beta = Estrogen receptor beta (Homo sapiens, UniProt Q92731); assay: blockers of SRC-3 recruitment to ERβ – biochemical, ELISA, streptavidin-HRP readout, orthogonal assay, confirmation (AID 1060)
Estrogen receptor beta, sequence (Q92731 whole entry): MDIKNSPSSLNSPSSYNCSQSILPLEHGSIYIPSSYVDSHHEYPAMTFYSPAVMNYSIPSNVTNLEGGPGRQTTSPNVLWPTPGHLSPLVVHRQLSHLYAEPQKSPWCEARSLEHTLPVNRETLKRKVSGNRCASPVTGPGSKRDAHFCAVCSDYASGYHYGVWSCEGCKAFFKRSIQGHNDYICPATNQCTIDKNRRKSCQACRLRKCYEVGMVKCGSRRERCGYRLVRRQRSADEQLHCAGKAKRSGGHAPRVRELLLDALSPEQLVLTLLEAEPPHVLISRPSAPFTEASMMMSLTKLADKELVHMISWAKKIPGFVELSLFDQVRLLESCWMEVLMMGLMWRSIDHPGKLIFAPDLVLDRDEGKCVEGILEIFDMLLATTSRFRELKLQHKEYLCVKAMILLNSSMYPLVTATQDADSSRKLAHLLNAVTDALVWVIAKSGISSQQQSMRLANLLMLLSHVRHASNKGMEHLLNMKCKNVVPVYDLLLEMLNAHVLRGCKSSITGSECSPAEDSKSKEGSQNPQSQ

[10] = Luminescence-based cell-based high throughput dose response assay to identify activators of the DAF-12 from the parasite S. stercoralis (ssDAF-12).; assay type: functional
[11] = target: T2, Oxysterols receptor LXR-beta (Homo sapiens, UniProt P55055); assay: LXR agonists, Gal4 luciferase reporter, dose response, counter-screen for ssDAF-12 agonist project, cell-based, luminescence, HEK293, S. stercoralis campaign (AID 720737); assay type: functional; settings: read-out: IC50 (the source's name)
T2 sequence (P55055 whole entry): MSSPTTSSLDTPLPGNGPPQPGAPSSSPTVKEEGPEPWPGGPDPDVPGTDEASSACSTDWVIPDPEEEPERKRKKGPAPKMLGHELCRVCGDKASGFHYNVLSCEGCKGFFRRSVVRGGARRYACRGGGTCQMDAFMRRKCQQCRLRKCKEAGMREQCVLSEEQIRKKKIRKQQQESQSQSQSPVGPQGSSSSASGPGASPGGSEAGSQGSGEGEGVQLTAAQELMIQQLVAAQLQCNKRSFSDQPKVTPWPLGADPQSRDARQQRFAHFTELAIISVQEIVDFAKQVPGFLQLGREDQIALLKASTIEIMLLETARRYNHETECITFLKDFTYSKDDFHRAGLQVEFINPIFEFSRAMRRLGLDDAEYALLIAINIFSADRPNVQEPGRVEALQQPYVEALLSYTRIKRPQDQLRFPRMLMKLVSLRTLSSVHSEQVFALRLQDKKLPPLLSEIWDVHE

[12] = luciferase reporter signal reduction – luminescence, H4-C neuroglioblastoma cells, dose response (AID 2458); assay type: functional, cell-based;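 note: H4 neuroglioblastoma cells stably carrying a luciferase reporter gene fusion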
cells = assay type: functional, cell-based
[13] = alpha-synuclein stem-loop luciferase translation blockers – H4 neuroglioma cells, luminescence, confirmation (AID 1988); assay type: functional, cell-based
[14] = alpha-synuclein stem-loop translation blockers – luminescence, H4 neuroglioblastoma cells, dose confirmation, confirmation (AID 2454); assay type: functional, cell-based;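 note: H4 neuroglioblastoma cells carrying an alpha-synuclein 5'UTR luciferase reporter; potency for inhibition of the luciferase signal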
Jurkat = assay: blockers of NF-kB activation in T cells – Jurkat, luciferase reporter, luminescence, B- and T-cell, dose response (AID 489004); assay type: functional, cell-based; settings: Homo sapiens;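 note: NF-kB luciferase reporter Jurkat cells stimulated with PMA plus ionomycin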
[15] = HEK-293T viability loss, compound-treated – cell-based, uHTS hits, cytotoxicity control for B/T-cell NF-kB inhibitor project, dose response (AID 489019); assay type: functional;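 note: IC50 reflects cytotoxicity as loss of cell viability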
[16] = blockers of HIV-1 envelope-mediated cell-cell fusion – cherry-pick, dose response (AID 652057); assay type: functional, cell-based
[17] = blockers of HIV-1 ZM109 envelope-driven cell-cell fusion – HeLa effector, CEM target cells, luciferase, cherry-pick, dose response (AID 652058); assay type: functional, cell-based;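 note: luciferase signal from HIV-1 Env mediated cell-cell fusion of effector and target cells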
[18] = off-target signal loss in HeLa-CEM21 co-culture – HeLa F-luc CTL cells, cherry-picked, counter-screen for HIV-1 Env fusion inhibitor project, dose response (AID 652040); assay type: functional, cell-based;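 note: potency for signal decrease marking cytotoxic or nonspecific inhibition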
[19] = HIV-1 AD8 envelope cell-cell fusion blockers – cherry-pick, dose response (AID 652062); assay type: functional, cell-based;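 note: luciferase signal from cell-cell fusion driven by HIV-1 clade B AD8 Env; potency is for inhibitors of fusion seen as a drop in luminescence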
[20] = blockers of bursicon-stimulated LGR2 cAMP reporter – cell-based, HEK293, CRE-luciferase reporter, cherry pick, set 2, dose response (AID 743343); assay type: functional;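 note: transfected cells were stimulated with diluted bursicon conditioned medium after compound addition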
[21] = blockade of melanocortin 4 receptor signaling – cell-based, plate reader, cherry pick, counter-screen for LGR2 antagonist project, dose response (AID 743444); assay type: functional;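 note: transfected HEK 293 cells stimulated with alpha-MSH peptide; potency of inhibitors of the alpha-MSH evoked signal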
[22] = target: T3, Tyrosine-protein phosphatase non-receptor type 7 (Homo sapiens, UniProt P35236); assay: HePTP tyrosine phosphatase activity blockers – biochemical, absorbance, leukemia target, primary screen (AID 521); assay type: functional
T3 sequence (P35236 whole entry): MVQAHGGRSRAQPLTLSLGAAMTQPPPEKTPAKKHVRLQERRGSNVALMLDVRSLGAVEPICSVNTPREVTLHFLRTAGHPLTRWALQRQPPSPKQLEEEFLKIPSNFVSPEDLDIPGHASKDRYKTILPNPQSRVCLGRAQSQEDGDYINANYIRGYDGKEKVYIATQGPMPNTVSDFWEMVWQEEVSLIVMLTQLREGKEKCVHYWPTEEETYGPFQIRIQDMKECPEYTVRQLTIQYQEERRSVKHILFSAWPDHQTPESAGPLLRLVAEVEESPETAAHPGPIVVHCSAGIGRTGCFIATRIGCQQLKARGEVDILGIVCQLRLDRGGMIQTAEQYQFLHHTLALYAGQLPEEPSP

Estrogen receptor = Estrogen receptor (Homo sapiens, UniProt P03372);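 note: potency for inhibiting coactivator peptide recruitment to the receptor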
Estrogen receptor, sequence (P03372 whole entry): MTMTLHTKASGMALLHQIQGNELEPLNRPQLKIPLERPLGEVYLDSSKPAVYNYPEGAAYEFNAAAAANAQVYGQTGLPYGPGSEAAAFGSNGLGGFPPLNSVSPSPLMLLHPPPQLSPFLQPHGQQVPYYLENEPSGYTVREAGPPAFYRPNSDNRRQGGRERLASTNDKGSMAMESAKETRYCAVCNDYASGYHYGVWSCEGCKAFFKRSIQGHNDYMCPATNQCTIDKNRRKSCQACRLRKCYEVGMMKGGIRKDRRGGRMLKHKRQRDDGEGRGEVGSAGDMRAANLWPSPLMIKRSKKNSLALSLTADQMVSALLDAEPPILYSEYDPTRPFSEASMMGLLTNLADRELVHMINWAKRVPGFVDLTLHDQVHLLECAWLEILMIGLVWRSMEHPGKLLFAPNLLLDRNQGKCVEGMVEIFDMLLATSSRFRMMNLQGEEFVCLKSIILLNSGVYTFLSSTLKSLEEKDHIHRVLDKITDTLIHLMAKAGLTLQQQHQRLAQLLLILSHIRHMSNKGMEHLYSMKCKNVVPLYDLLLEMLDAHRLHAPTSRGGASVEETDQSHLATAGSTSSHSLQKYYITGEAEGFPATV

In the case of `CCOC(=O)C(C(C)=O)c1c(Br)c(O)c(O)c2c(C(=O)c3ccc(C)cc3)coc12` (stereo unspecified), the IC50 [1] is reported as 4.26 µM (active), the IC50 [2] is reported as 3.43 µM (active) and the EC50 [3] is reported as 3.41 µM (active). The EC50 [4] was 3.75 µM (active), the EC50 [5] was 18.8 µM (active) and the EC50 [6] was 15.8 µM (active). For the same molecule, the IC50 (Nonstructural protein 1) was > 100 µM (active) and the AC50 (INS1) was 3.56 µM (active).
For `O=S(=O)(c1ccc(NC2=NN=C(c3cc(F)ccc3F)CS2)cc1)N1CCOCC1`, the AC50 [7] was > 30 µM (inactive).
For `Cc1ccc(OCc2ccc(C(=O)O)o2)cc1C`, the IC50 [8] was 1.75 µM (active).
With `CS(=O)(=O)c1sc(C(=O)NC(=S)Nc2ccc(OC(F)(F)F)cc2)c2c1C=CCC2` the EC50 [9] was 1.01 µM (active).
In the case of `COc1ccc(NC(=O)c2noc3c2CCC3)cc1`, the IC50 (Bcl-2-like protein 10) is reported as 12.6 µM (active) and the IC50 (Estrogen receptor beta) is reported as < 0.023 µM (not active).
In the case of `COc1cc(SC)ccc1C(=O)Nc1ccc2c(c1)CCC2`, the IC50 [10] is reported as > 67.5 µM (inactive) and the EC50 [11] is reported as > 67.5 µM (inactive).
With `Cc1ccc(C(=O)CN2C(=O)c3ccccc3S2(=O)=O)cc1` the EC50 [12] was 0.263 µM (active), the EC50 (cells) was 0.315 µM (active) and the EC50 [13] was < 0.1 µM (active). For the same molecule, the IC50 [8] was 4.64 µM (active), the EC50 [14] was 0.363 µM (active) and the IC50 (Jurkat) was 1.57 µM (active). For the same molecule, the IC50 [15] was > 80 µM (inactive), the AC50 [16] was 1.81 µM (active) and the AC50 [17] was 17.9 µM (active). The AC50 [18] was 3.11 µM (active), the AC50 [19] was 4.12 µM (active) and the AC50 [20] was 0.594 µM (active). The AC50 [21] was 0.548 µM (active).
In the case of `N=c1c2c3c(sc2ncn1CCN1CCOCC1)CCCC3`, the IC50 [22] is reported as > 100 µM (not active).
With `Cc1cc(NC(=O)CSc2nc3c(c(=O)n2CCc2ccccc2)SC(C)C3)no1` (stereo unspecified) the IC50 (Estrogen receptor) was 33.6 µM (not active).
For `CCn1c(COc2ccccc2)nnc1SCC(=O)NC1CCCCC1`, the IC50 [22] was > 100 µM (not active).
